Test results published in a melting point compilation (Tetko et al.; mined from patent text by program, amines drawn as free bases though some values may be those of a salt).
Residues, ends and D or L forms follow the SMILES beside them. *: point of attachment. Cbz = O=C(OCc1ccccc1)*; NHPr = CCCN*

`CC(C)(C)c1ccc(-c2cc3ccc(C(=O)O)cc3s2)cc1` gave a melting point of 318 °C. For `CC(=O)c1c(C)oc2c(-n3c(=O)cc(C(F)(F)F)n(C)c3=O)c(F)cc(Cl)c12`, the melting point was 138 to 140 °C. With `OCCN1CCN(C2=Nc3cc(F)ccc3Nc3ccsc32)CC1` the melting point was 205 to 210 °C. For `Cc1nc2cc(Nc3nccc(-c4ccc(Cl)nc4)n3)ccc2s1`, the melting point was 235 to 237 °C. Molecule `O=C(O)c1c(O)cccc1-c1ccccc1` has a melting point of 143 to 146 °C. Work on `C=CCOC(=O)CC(C(C)=O)S(=O)(=O)c1ccccc1` (configuration not stated) yielded a melting point of 62 to 64 °C. For `COc1ccccc1CN1CN2CCCC1C2c1ccccc1` (configuration not stated), the melting point was 105 to 107 °C. In the case of `COc1cc(CCl)ccc1OCc1coc(-c2ccco2)n1`, the melting point is reported as 123 to 124 °C. With `O=C(Nc1ccc(CN2CCCCC2)cc1)C(Br)C(Br)c1ccc(-c2ccc(Cl)cc2)cc1` (configuration not stated) the melting point was 145 to 150 °C. In the case of `NC(=O)COCC(Cc1ccccc1)NC(=O)[C@@H]1CCCN1C(=O)OCc1ccccc1` (some centres not stated), the melting point is reported as 137 to 142 °C. Work on `c1cc(CC2CCNC3CCCN23)ccc1CC1CCNC2CCCN12` (configuration not stated) yielded a melting point of 110 °C. With `CCOC(=O)CC(NC(=O)c1ccccc1)C(=O)c1ccco1` (configuration not stated) the melting point was 75 to 76 °C. `O=CC(CC(=O)c1ccccc1)(c1ccccc1)c1ccccc1` showed a melting point of 125 to 127 °C. With `CCOC(=O)CC1SC(c2cc(C(C)(C)C)c(O)c(C(C)(C)C)c2)N(CCCBr)C1=O` (configuration not stated) the melting point was 154 to 155 °C. In the case of `CCN1C(=O)NCC1c1ccc(OC)c(OC2CC3CCC2C3)c1` (configuration not stated), the melting point is reported as 149 to 153 °C. With `CCc1cc2c(NCc3ccccc3)ncnc2s1` the melting point was 128 to 131 °C. For `COc1cc2c(cc1OC)[C@@H]1C[C@H](NC(=O)OC(C)(C)C)[C@@H](N3C[C@H](CF)CC3=O)CN1CC2`, the melting point was > 300 °C. For `Oc1ccc2nc(Br)sc2c1`, the melting point was 203 to 204 °C. With `CC(=O)Nc1ccc(Cl)c(O)c1` the melting point was 212 °C. `CCOc1ccccc1CS(N)(=O)=O` showed a melting point of 92 to 93 °C. Molecule `CCOC(=O)c1cc2c(nc(C)n2C)c2c1CCC(c1ccccc1)O2` (configuration not stated) has a melting point of 172 to 173 °C. Molecule `CCOC(=O)C1=C(COCCN)NC=C(C(=O)OC)C1c1cccc(C(F)(F)F)c1Cl` (configuration not stated) has a melting point of 122 °C. Work on `C(#Cc1ccsc1)C1=CCN(Cc2c[nH]c3ncccc23)CC1` yielded a melting point of 203 to 205 °C. `COc1ccc(N2CCOCC2)c2sc(C(=O)NCC(=O)c3sc4ccccc4c3C)nc12` showed a melting point of 180 °C. Work on `CCCOc1cccc2c1C(N)=NS(=O)(=O)N2` yielded a melting point of 229 to 230 °C. Molecule `C=CCONC(=O)c1nc(-c2ccc(C)cc2)cc(N)c1Cl` has a melting point of 177 to 179 °C. With `C=CCn1c(=O)[nH]c2ccccc2c1=N` the melting point was 223 to 224 °C. Molecule `O=[N+]([O-])c1ccc(F)cc1OCC(F)(F)F` has a melting point of 44 to 45 °C. In the case of `CC(C)(C)OC(=O)N1CCN(c2ccc(OC[C@@]3(C)Cn4cc([N+](=O)[O-])nc4O3)cc2Cl)CC1`, the melting point is reported as 207 to 210 °C. With `CC(c1ccc2c(c1)[nH]c1ccccc12)n1ccnc1` (configuration not stated) the melting point was 157 to 158 °C. With `C=CC[C@@H](C(=O)N[C@H](C(=O)N[C@H](C)c1ccccc1)C(C)(C)C)[C@H](OCC)C(=O)OC` the melting point was 131 to 134 °C. For `CS(=O)(=O)c1ccc(-c2cocc2-c2ccc(F)cc2)cc1`, the melting point was 160 to 161 °C. Molecule `CC(C)Cn1c(C(C)O)nc2c(N)nc3ccccc3c21` (configuration not stated) has a melting point of 145 to 149 °C. With `CC(O)c1ccc(-c2ccc(C(=O)OCc3ccccc3)cc2)cc1` (single isomer, unassigned; (+)) the melting point was 104 to 106 °C. With `CC(C)(C)OC(=O)n1nc2nc3n(c(=O)c2c1N)CCS3` the melting point was > 300 °C. `CS(=O)(=S)OCc1ccc(C(=O)O)cc1` (configuration not stated) showed a melting point of 188 °C. With `O=C1CCC(c2ccc(O)cc2)=NN1` the melting point was 157 to 159 °C. With `Cc1nc(I)cn1-c1ccc(F)cc1` the melting point was 151 °C. `COc1ccc(C2=NN(CC(=O)c3ccccc3OC)C(=O)[C@H]3CCCC[C@@H]23)cc1OC` (relative stereo) gave a melting point of 93 to 96 °C. `O=C(Nc1cccc(-c2ccnc3c(C(=O)c4cccs4)cnn23)c1)c1ccccn1` gave a melting point of 198 to 200 °C. `Cc1nc(N2CCN(Cc3ccc(C(F)(F)F)cc3)C2=O)sc1CO` gave a melting point of 153 to 154 °C. In the case of `Cn1ccc(Nc2ccc([N+](=O)[O-])cc2[N+](=O)[O-])n1`, the melting point is reported as 150 °C. Molecule `O=[N+]([O-])c1ccc2[nH]cc(C3=CCC4(CC3)OCCO4)c2c1` has a melting point of 175 to 177 °C. `CCOC(=O)C(C)=Cc1ccc2cc[nH]c2c1` gave a melting point of 88 to 91 °C. Work on `CC1(C)NC(=O)C2CN(CCCC(c3ccc(F)cc3)c3ccc(F)cc3)CCN21` (configuration not stated) yielded a melting point of 148 °C. In the case of `CC(=O)OCC(C)(C(=O)OC(C)(C)C)C(=O)c1ccccc1` (configuration not stated), the melting point is reported as 95 to 97 °C. In the case of `COc1c(C=NO)ccc2c1OCO2`, the melting point is reported as 118 to 119 °C. In the case of `COC(=O)c1cc2c(O)c(C(=O)NCc3ccc(Cl)cc3)cnc2nc1C`, the melting point is reported as 265 to 267 °C. `N#Cc1cc(-c2c(-c3ccccc3)nn3ccccc23)c[nH]c1=O` showed a melting point of 312 to 314 °C. In the case of `COc1cc(-c2nc3ccccc3n2Cc2c(Cl)cccc2Cl)cc(OC)c1OC`, the melting point is reported as 157 °C. For `COC(=O)c1ccccc1Oc1ccccc1[N+](=O)[O-]`, the melting point was 49 to 50 °C. Work on `Cc1nc(N)c2nc(C)n(CCOCCNC(=O)C(C)C)c2c1C` yielded a melting point of 180 to 182 °C. Molecule `CCCCCCCCCCCCCCCCCCNC(=O)C(=O)Nc1ccc(Sc2ccc(O)cc2)cc1` has a melting point of 163 °C. In the case of `O=C(O)Cc1c(-c2ccccc2)[nH]c2nccnc12`, the melting point is reported as 276 to 277 °C. In the case of `O=c1[nH]c2c(Cl)cc(Cl)cc2c(=O)n1CCCN1CC=C(c2ccc(Cl)cc2)CC1`, the melting point is reported as 197 to 199 °C. `CCC(C)(C)c1cccc(NC=O)c1C` gave a melting point of 51 to 53 °C. Work on `c1ccc2c(c1)CNc1ccccc1S2` yielded a melting point of 145 to 148 °C. In the case of `O=[N+]([O-])c1cc(S(=O)c2ccccc2)ccc1Cl` (configuration not stated), the melting point is reported as 86 to 87 °C. In the case of `CN1CCC(=C2c3ccc(Cl)cc3C(=NO)Cc3cccnc32)CC1`, the melting point is reported as 172 to 175 °C. Molecule `CCCCN(CCCC)S(=O)(=O)c1ccc(C(CC2CCCC2)C(=O)Nc2nc3ccc(OC)nc3s2)cc1` (configuration not stated) has a melting point of 65 to 67 °C. In the case of `Cc1cc2c(cc1C)N(C)C(=O)c1cccnc1N2`, the melting point is reported as 206 to 209 °C. `CCC(O)(CC)[C@H](Nc1nnc(-c2c(OS(=O)(=O)C(F)(F)F)ccc3ccccc23)c2ccccc12)c1ccccc1` gave a melting point of 117 to 119 °C. In the case of `CCOC(=O)c1c2c(n(CC(N)=O)c1C)C(=O)C(=O)c1ccc(Br)cc1-2`, the melting point is reported as > 250 °C. Work on `COC(=O)c1cc(CI)on1` yielded a melting point of 91 to 95 °C. With `CC1(C)C2CCC1(CS(=O)(=O)N1CCC3(C=Cc4ccccc43)CC1)C(O)(CC(=O)O)C2` (configuration not stated) the melting point was 138 to 140 °C. `CC(=O)C(=CS(=O)(=O)NC(C)C)c1cccc([N+](=O)[O-])c1` showed a melting point of 153 to 157 °C. `CC(C)(C)c1cccc(C[C@H]2NC(=O)O[C@H]2c2cccc(Cl)c2)c1` (racemic) gave a melting point of 136 to 137 °C. Work on `CCOC(=O)C1CCCCN1C(=O)c1ccc(Cl)c(C2(C)C(=O)N(Cc3ccc(OC)cc3OC)c3ccc(Cl)cc32)c1` (configuration not stated) yielded a melting point of 113 °C. Work on `COc1cc2c(cc1F)C(c1ccccc1Cl)=NC1=C(C)NNC1=N2` yielded a melting point of 217 to 218 °C. For `FC(F)(F)c1cccc(C(c2ccc3ncccc3c2Cl)n2cncn2)c1` (configuration not stated), the melting point was 144 °C. `C=CC[C@H]1C(=O)N(S(=O)(=O)c2ccc3ccccc3c2)[C@H]2CCN(C(=O)OCc3ccccc3)[C@H]12` (relative stereo) showed a melting point of 158 to 160 °C. For `O=Cc1cccnc1Oc1ccc(Cl)c(Cl)c1`, the melting point was 97 to 99 °C. In the case of `Cc1nc(C#N)c2n1-c1ccc(Cl)cc1C(c1ccccc1)=NC2`, the melting point is reported as 228 to 229 °C. Molecule `CCOC(=O)c1c2n(c3cc(N4CCNCC4)c(F)cc3c1=O)C(C)S2` (configuration not stated) has a melting point of 224 °C. For `CN(C)c1ccc(S(=O)(=O)n2c(CCCC(=O)O)cc3nc(Cl)ccc32)c(Cl)c1`, the melting point was 208 °C. Molecule `Clc1cc2c(cc1CN1CCN(CCOc3ccccc3)CC1)OCO2` has a melting point of 72 to 76 °C. For `CC[C@H](C)C(=O)O[C@H]1C[C@@H](C)C=C2C=C[C@H](C)[C@H](CCC(=O)C[C@@H](O)CC(=O)O)[C@H]21`, the melting point was 102 to 103 °C. For `COc1ccc(CN2C=CC=C3C2=Nc2cc(OC)ccc2S(=O)(=O)N3C)cc1`, the melting point was 179 to 180 °C. In the case of `CNC[C@@H](O)c1cnccn1`, the melting point is reported as 78 to 81 °C. For `c1ccc(CCNc2cc(-n3cccn3)nc(-c3cccs3)n2)nc1`, the melting point was 159 to 160 °C. Work on `CN(Cc1ccccc1)Cc1nc(-c2ncn3c2CN(C)C(=O)c2cc(F)ccc2-3)no1` yielded a melting point of 161 to 162 °C. `CCN1CCCC1CNS(=O)(=O)c1ccc(Nc2ccnc3cc(C(F)(F)F)ccc23)cc1` (configuration not stated) gave a melting point of 194 to 195 °C. For `CCOC(=O)C1=C(C)NC(C)=C(C(=O)OCC=CC=Cc2ccccc2)C1c1cccc([N+](=O)[O-])c1` (configuration not stated), the melting point was 143 to 147 °C. In the case of `COC(=O)c1cccc(OCCC(C#N)NC(=O)C(Cc2cccc(C)c2)NC(=O)C(c2ccccc2)c2ccccc2)c1` (configuration not stated), the melting point is reported as 152 to 153 °C. `COC(=O)c1cc(OCCOc2cccc3ccccc23)cc(OCCOc2cccc3ccccc23)c1` showed a melting point of 132 to 137 °C. Molecule `O=C1C=C(Nc2cc(F)ccc2F)CCN1` has a melting point of 252 to 255 °C. In the case of `CC1CCc2c(ccc(F)c2-n2ccnc2)N1` (configuration not stated), the melting point is reported as 162 to 164 °C. Molecule `COCCN1CCc2ccc(OC)c(Nc3ncc(Cl)c(Nc4ccc(N5CCOCC5)cc4OC)n3)c2CC1` has a melting point of 68 to 80 °C. In the case of `COC(=O)c1ccc(COc2ccc3cc(-c4ccc(-c5ccccc5)[nH]4)ccc3c2)c(C(=O)OC)c1`, the melting point is reported as 203 to 205 °C. `COC(=O)c1ccc(N2C(=O)C(O)=C(C(=O)c3ccc(C)cc3)C2c2ccc(C(C)C)cc2)nc1` (configuration not stated) gave a melting point of 264 to 266 °C. For `CCC(=O)C(=O)Nc1c(C)c(C)c2c(c1C)C(c1ccc(C(C)C)cc1)CO2` (configuration not stated), the melting point was 97 to 98 °C. Work on `CCOC(=O)c1cnc2c(NC(=O)c3c(Cl)cccc3Cl)cccc2c1CSc1ncc[nH]1` yielded a melting point of 120 to 123 °C. Molecule `CCc1nc2c(N)nc3ccccc3c2n1CCOCCNC(=O)N1CCOCC1` has a melting point of 182 to 184 °C. `CCCNC(=O)C1CCCN1C(=O)C(C)NC(=O)OCc1ccccc1` (stereo not drawn) (Cbz-Ala-Pro-NHPr; configuration not given here) showed a melting point of 117 to 120 °C. With `CCC(CC)n1cc(Cl)nc(N2CCc3cc(Br)cc(Cl)c32)c1=O` the melting point was 156 to 157 °C. `CC(=O)Oc1ccc(-c2cnc(NC(=S)Cc3ccccc3)c(Cc3ccccc3)n2)cc1` showed a melting point of 143 to 145 °C. `COc1cc(C(C)=O)ccc1OCCCCl` showed a melting point of 57.8 to 58.5 °C.
